Experimental data published in US7700560B2 (University of Maryland, Baltimore County, priority 2003, dated 2010).
Like-named read-outs stand apart in the source and are kept apart here.

Experiments:
human GlxI [1] = molecular target: T1, human GlxI (Homo sapiens, UniProt Q04760); assay: Competitive inhibition constants (Kis) with human GlxI; assay type: biochemical; conditions: for binds more tightly to hGlxI than to yGlxI: ratio of Ki yGlxI / hGlxI
T1 construct: hGlxI from human erythrocytes; from tissue; host or cells: human erythrocytes
T1 sequence (Q04760 2-184 limits assumed): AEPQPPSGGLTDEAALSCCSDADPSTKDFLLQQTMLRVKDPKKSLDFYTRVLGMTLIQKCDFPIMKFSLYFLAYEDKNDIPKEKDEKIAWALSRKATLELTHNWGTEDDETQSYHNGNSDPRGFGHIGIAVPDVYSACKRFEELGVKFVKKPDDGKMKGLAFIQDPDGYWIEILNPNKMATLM
Description: (§1) Competitive inhibition constants (Kis) of bivalent and monovalent enzyme inhibitors with human GlxI or yeast GlxI (yGlxI) were obtained from the change in the initial rates of product formation at various concentrations of the substrate in the presence or absence of the inhibitor. To a 1 ml cuvette containing 50 mM sodium phosphate buffer, pH 7.0, 0.5 mM EDTA, 25° C. and different concentrations of thiohemiacetal substrates with fixed concentrations of inhibitor was added approximately 0.02 U of enzyme. The initial rates of product formation were followed on the basis of the increase in absorbancy at 240 nm. Inhibition constants were obtained by fitting the initial rate data to the equation for competitive inhibition.

[2] = tested on: murine melanotic melanoma; conditions: cited from earlier work; for efficacy relative to positive control adriamycin: at much higher dosages than adriamycin
yeast GlxI = molecular target: T2, yeast GlxI (Saccharomyces cerevisiae, UniProt P50107); assay: Competitive inhibition constants (Kis) with yeast GlxI; assay type: biochemical; conditions: sodium phosphate buffer, 50 mM, pH 7, 25° C.; mean (±S.D.) duplicate; read-out: Ki, yGlxI
T2 sequence (P50107 1-326): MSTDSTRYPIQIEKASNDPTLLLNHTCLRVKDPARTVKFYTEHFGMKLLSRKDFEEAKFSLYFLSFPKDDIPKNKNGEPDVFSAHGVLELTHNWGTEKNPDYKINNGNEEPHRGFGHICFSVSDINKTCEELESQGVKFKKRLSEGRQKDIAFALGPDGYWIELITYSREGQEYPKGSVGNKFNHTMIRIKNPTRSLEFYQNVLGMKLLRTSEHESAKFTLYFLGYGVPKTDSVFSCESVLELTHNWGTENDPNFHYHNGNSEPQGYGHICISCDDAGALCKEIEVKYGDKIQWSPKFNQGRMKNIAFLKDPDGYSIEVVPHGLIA
Description: as §1

[3] = tested on: murine leukemia L1210 cells; conditions: cited from earlier work; for IC50: after 72 hours of incubation, diethyl ester prodrugs, read-out: IC50, growth of L1210 cells
bovine liver GlxII [4] = molecular target: T3, bovine liver GlxII (Bos taurus, UniProt Q3B7M2); assay: Competitive inhibition constants (Kis) with bovine liver GlxII; assay type: biochemical; conditions: sodium phosphate buffer, 50 mM, pH 7, 25° C.; mean (±S.D.) duplicate; read-out: Ki, bGlxII
T3 construct: yeast GlxI (yGlxI) and bovine liver GlxII (bGlXII); from tissue; host or cells: bovine liver

human GlxI [5] = molecular target: T1, human GlxI; assay: Irreversible inactivation kinetics of human GlxI; assay type: biochemical
Description: Incubation mixtures of enzyme (10 units/ml) and known concentrations of inactivator in phosphate buffer were separately incubated in plastic bullet tubes maintained at 25° C. in a water bath. Aliquots were removed, diluted into a quartz cuvette containing one ml GSH-methylglyoxal-thiohemiacetal, and the rate of product formation (ΔOD (240)) monitored as a function of time. From the initial rate of product formation, the activity of the enzyme was calculated. The slope of a plot of in (fraction of enzyme activity remaining) versus time gives the apparent first-order rate constant (kinact) for inactivation of hGlxI. A plot of kinact versus inactivator concentration (FIG. 7.) gives the dissociation constant (Kd and the maximum value of kinact).

bovine liver GlxII [6] = molecular target: T3, bovine liver GlxII; conditions: cited from earlier work
GSH peroxidase = assay: Inhibition of GSH peroxidase; assay type: biochemical; conditions: up to an inhibitor concentration of 20 μM
[7] = molecular target: T4, human placental GSH transferase (Homo sapiens, UniProt P09211); assay: Inhibition of human placental GSH transferase; assay type: biochemical; conditions: up to an inhibitor concentration of 20 μM
T4 construct: human placental GSH transferase; from tissue; host or cells: human placenta
T4 sequence (P09211 2-210 limits assumed): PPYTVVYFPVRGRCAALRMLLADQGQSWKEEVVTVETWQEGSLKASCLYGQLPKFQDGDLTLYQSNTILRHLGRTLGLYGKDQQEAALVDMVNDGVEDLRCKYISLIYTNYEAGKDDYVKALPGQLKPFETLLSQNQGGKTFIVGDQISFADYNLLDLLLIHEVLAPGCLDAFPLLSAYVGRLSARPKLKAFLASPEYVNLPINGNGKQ

[8] = tested on: human prostate PC3 tumors; conditions: cited from earlier work
human colon HT29 tumors = conditions: cited from earlier work
[9] = tested on: DMS114 lung and DU145 prostate xenografts; conditions: cited from earlier work
[10] = sodium phosphate buffer, 50 mM, pH 7, 25° C., mean (±S.D.) triplicate, read-out: Ki, hGlxI
[11] = glycerol (20%) in sodium phosphate buffer, pH 7, 25° C.

O=C(O)CNC(=O)C(CSC(=O)N(O)c1ccc(Cl)cc1)NC(=O)CCC(NC(=O)CCNC(=O)CCNC(=O)CCNC(=O)CCCCCCC(=O)NCCC(=O)NCCC(=O)NCCC(=O)NC(CCC(=O)NC(CSC(=O)N(O)c1ccc(Cl)cc1)C(=O)NCC(=O)O)C(=O)O)C(=O)O (stereo not drawn) [[CHG(β-Ala)n]2sub., n = 3, [CHG(β-ala)3]2suberate diamide]
Ki (human GlxI [1]; [10]): 84.1 ± 2.4 nM

NC(CCC(=O)NC(CSC(=O)N(O)c1ccc(Cl)cc1)C(=O)NCC(=O)OC1CCCC1)C(=O)OC1CCCC1 (stereo not drawn) [CHG(cyclopentyl)2]
efficacy relative to positive control adriamycin [2]: as effective as the positive control adriamycin

O=C(O)CNC(=O)C(CSC(=O)N(O)c1ccc(Cl)cc1)NC(=O)CCC(NC(=O)CCNC(=O)CCNC(=O)CCNC(=O)CCNC(=O)CCCCCCC(=O)NCCC(=O)NCCC(=O)NCCC(=O)NCCC(=O)NC(CCC(=O)NC(CSC(=O)N(O)c1ccc(Cl)cc1)C(=O)NCC(=O)O)C(=O)O)C(=O)O (stereo not drawn) [[CHG(β-Ala)n]2sub., n = 4, [CHG (β-ala)4]2suberate diamide]
Ki (human GlxI [1]; [10]): 59.6 ± 2 nM | Ki (yeast GlxI): 9000 ± 300 nM

CCOC(=O)CNC(=O)C(CSC(=O)N(O)c1ccc(Br)cc1)NC(=O)CCC(N)C(=O)OCC (stereo not drawn) [BHG(Et)2]
IC50 [3]: 16000 nM

O=C(O)CNC(=O)C(CSC(=O)N(O)c1ccc(Cl)cc1)NC(=O)CCC(NC(=O)CCNC(=O)CCNC(=O)CCCCCCC(=O)NCCC(=O)NCCC(=O)NC(CCC(=O)NC(CSC(=O)N(O)c1ccc(Cl)cc1)C(=O)NCC(=O)O)C(=O)O)C(=O)O (stereo not drawn) [[CHG(β-Ala)n]2sub., n = 2, [CHG(β-ala)2]2suberate diamide]
Ki (bovine liver GlxII [4]): 50 ± 5 nM | Ki (human GlxI [1]; [10]): 75.9 ± 7.4 nM

O=C(O)CNC(=O)[C@H](CSC(=O)N(O)c1ccc(Cl)cc1)NC(=O)CC[C@H](NC(=O)CCNC(=O)CCCCCCC(=O)NCCC(=O)N[C@@H](CCC(=O)N[C@@H](CSC(=O)N(O)c1ccc(Cl)cc1)C(=O)NCC(=O)O)C(=O)O)C(=O)O [[CHG(β-Ala)n]2sub., n = 1, [CHG(β-ala)]2Suberate Diamide]
Ki (bovine liver GlxII [4]): 35 ± 4 nM | Ki (human GlxI [1]; [10]): 70.1 ± 1.3 nM | Ki (yeast GlxI): 3000 ± 200 nM

N[C@@H](CCC(=O)N[C@@H](CSC(=O)N(O)c1ccc(Cl)cc1)C(=O)NCC(=O)O)C(=O)O [CHG, S—(N-p-chlorophenyl-N-hydroxycarbamoyl)glutathione, reference compound]
binds more tightly to hGlxI than to yGlxI (human GlxI [1]): 78 fold | protection of the enzyme from inactivation by BPG/BBG (human GlxI [5]; reversible inhibitor present): protects the enzyme from inactivation | substrate for bovine liver GlxII (bovine liver GlxII [6]): substrates for bovine liver GlxII

NCCC(=O)NC(CCC(=O)NC(CSC(=O)N(O)c1ccc(Cl)cc1)C(=O)NCC(=O)O)C(=O)O (stereo not drawn) [CHG(β-Ala)n, n = 1]
Ki (bovine liver GlxII [4]): 1200 ± 12 nM | Ki (human GlxI [1]; [10]): 330 ± 6 nM

[CHG (β-ala)7]2suberate diamide [[CHG(β-Ala)n]2sub., n = 7]
Ki (bovine liver GlxII [4]): 79 ± 8 nM | Ki (human GlxI [1]; [10]): 0.97 ± 0.02 nM | Ki (yeast GlxI): 4100 ± 500 nM

O=C(O)CNC(=O)[C@H](CSC(=O)N(O)c1ccc(Cl)cc1)NC(=O)CC[C@H](NC(=O)CCNC(=O)CCNC(=O)CCNC(=O)CCNC(=O)CCNC(=O)CCNC(=O)CCCCCCC(=O)NCCC(=O)NCCC(=O)NCCC(=O)NCCC(=O)NCCC(=O)NCCC(=O)N[C@@H](CCC(=O)N[C@@H](CSC(=O)N(O)c1ccc(Cl)cc1)C(=O)NCC(=O)O)C(=O)O)C(=O)O [[CHG(β-Ala)n]2sub., n = 6, [CHG (β-ala)6]2suberate diamide]
Ki (bovine liver GlxII [4]): 142 ± 1 nM | mode of inhibition of hGlxI (human GlxI [1]; hGlxI from human erythrocytes, reciprocal plot FIG. 4): competitive inhibitor | binding selectivity hGlxI versus bGlxII (human GlxI [1]; ratio of Ki bGlxII / hGlxI): 148 fold | binds more tightly to hGlxI than to yGlxI (human GlxI [1]): about 7500 fold | Ki (human GlxI [1]; [10]): 0.96 ± 0.06 nM | inhibitory activity on GSH peroxidase (GSH peroxidase): no inhibitory activity | inhibitory activity on human placental GSH transferase [7]: no inhibitory activity | Ki (yeast GlxI): 7200 ± 100 nM

CN(O)C(=O)SC[C@H](NC(=O)CC[C@H](N)C(=O)O)C(=O)NCC(=O)O [S—(N-methyl-N-hydroxycarbamoyl)glutathione]
substrate for bovine liver GlxII (bovine liver GlxII [6]): substrates for bovine liver GlxII

N[C@@H](CCC(=O)N[C@@H](CSC(=O)N(O)c1ccccc1)C(=O)NCC(=O)O)C(=O)O [S—(N-phenyl-N-hydroxycarbamoyl)glutathione]
substrate for bovine liver GlxII (bovine liver GlxII [6]): substrates for bovine liver GlxII

CCOC(=O)CNC(=O)C(CSC(=O)N(O)c1ccccc1)NC(=O)CCC(N)C(=O)OCC (stereo not drawn) [PHG(Et)2]
IC50 [3]: 63000 nM

CCOC(=O)CNC(=O)[C@H](CSC(=O)N(O)c1ccc(Cl)cc1)NC(=O)CC[C@H](N)C(=O)OCC [CHG(Et)2]
haemopoetic toxicity ([8]; PC3 tumor-bearing mice): without the cisplatin-associated haemopoetic toxicity | growth of PC3 tumors ([8]; bolus i.v. administration): inhibited the growth | potency relative to positive control cisplatin ([8]; bolus i.v. administration): as good as the positive control cisplatin | effect on PC3 tumors ([8]; continuous infusion over 12 days): no effect was observed | efficacy relative to positive control adriamycin [2]: as effective as the positive control adriamycin | accumulation of drug in melanoma ([2]; following i.v. bolus administration): significant accumulation of drug in melanoma | efficacy against HT29 tumors (human colon HT29 tumors; bolus administration): efficacy was not observed | potency relative to positive control vincristin (human colon HT29 tumors; continuous i.v. infusion): as good as the positive control vincristin | side-effects (human colon HT29 tumors; continuous i.v. infusion): without any detectable side-effects | toxicity to L1210 cells versus normal splenic lymphocytes in culture ([3]; Kavarana et al 1999): significantly more toxic to murine leukemia L1210 cells than to normal splenic lymphocytes | IC50 [3]: 5000 nM

N[C@@H](CCC(=O)N[C@@H](CSCc1ccc(Br)cc1)C(=O)NCC(=O)O)C(=O)O [(S-p-bromobenzyl)glutathione (BBG), (S-p-bromobenzyl)glutathione]
efficacy against human lung tumors (DMS114) in mice ([9]; dosages of 100 mg/kg): effective | adverse side effects ([9]; during the 21 days of administration, 100 mg/kg): no evidence of adverse side effects

N[C@@H](CCC(=O)N[C@@H](CSCC(=O)OCCCCOC(=O)CBr)C(=O)NCC(=O)O)C(=O)O
irreversible inactivation of human GlxI (human GlxI [5]; [11]): irreversibly inactivate human GlxI | kinact (human GlxI [5]; [11]): 0.000267 s⁻¹ | Kd (human GlxI [5]; glycerol (20%) in sodium phosphate buffer, pH 7, 25° C., fit of kobsd vs concentration, read-out: Kd (dissociation constant) for inactivation of human GlxI): 177000 ± 43000 nM

O=C(O)CNC(=O)C(CSC(=O)N(O)c1ccc(Cl)cc1)NC(=O)CCC(NC(=O)CCNC(=O)CCNC(=O)CCNC(=O)CCNC(=O)CCNC(=O)CCCCCCC(=O)NCCC(=O)NCCC(=O)NCCC(=O)NCCC(=O)NCCC(=O)NC(CCC(=O)NC(CSC(=O)N(O)c1ccc(Cl)cc1)C(=O)NCC(=O)O)C(=O)O)C(=O)O (stereo not drawn) [[CHG(β-Ala)n]2sub., n = 5, [CHG (β-ala)5]2suberate diamide]
Ki (human GlxI [1]; [10]): 7.5 ± 0.5 nM

N[C@@H](CCC(=O)N[C@@H](CSC(=O)N(O)c1ccc(Br)cc1)C(=O)NCC(=O)O)C(=O)O [BHG, S—(N-p-bromophenyl-N-hydroxy-carbamoyl)glutathione]
substrate for bovine liver GlxII (bovine liver GlxII [6]): substrates for bovine liver GlxII

N-(tri-beta-ala hydroxyethylamide ethylenediamine bis(hexanedioic acid O-carbonylethyl)S—(N-p-bromophenyl-N-hydroxy-carbamoyl)glutathione [polyBHG2-54]
Ki (human GlxI [1]; competitive inhibition, read-out: Ki values, human GlxI): 0.3 nM
